From patent publication US10899733B2, “Inhibitors of PARPs that catalyze mono-ADP-ribosylation” (OREGON HEALTH & SCIENCE UNIVERSITY, priority 2017, dated 2021)
Read-outs that look alike come from different tables or passages of the source.

How the values were obtained:
Assay in all cases: PARP panel: ADP-ribosylation of SRPK2 using 6-a-NAD+
Format in all cases: biochemical
PARP4brct-cat [1] = target: T1, PARP4brct-cat (Homo sapiens, UniProt Q9UKK3); conditions: up to 100 μM
T1 construct: PARP4brct-cat
Text: (§1) We screened 22 against poly-ADPr PARPs (PARPs 1, 2, and PARP5b) and mono-ADPr PARPs (PARPs 3, 4, 10, 11, 14, and 15) in an assay that measures ADP-ribosylation of SRPK2 using an N^6-alkyne tagged NAD^+ (6-a-NAD^+), a clickable NAD^+ analogue.{Jiang et al., 2010, J. Am. Chem. Soc. […] The observed selectivity is most likely due to the differences in the last position of the H-Y-E catalytic triad of these enzymes versus the H-Y-I triad found in PARP10. {Hottiger et al., 2010, Trends Biochem. Sci. 35, pp. 208-219} The glutamate (E988 in PARP1) in PARPs 1-4 and PARP 5b most likely clash with the pyridiny-4-yl group at the 6-position of 22, while PARP10 contains an isoleucine (1978) at this position that can accommodate this group (FIG. 1B).

PARP3 = target: T2, PARP3 (Homo sapiens, UniProt Q9Y6F1)
T2 sequence (Q9Y6F1 1-533): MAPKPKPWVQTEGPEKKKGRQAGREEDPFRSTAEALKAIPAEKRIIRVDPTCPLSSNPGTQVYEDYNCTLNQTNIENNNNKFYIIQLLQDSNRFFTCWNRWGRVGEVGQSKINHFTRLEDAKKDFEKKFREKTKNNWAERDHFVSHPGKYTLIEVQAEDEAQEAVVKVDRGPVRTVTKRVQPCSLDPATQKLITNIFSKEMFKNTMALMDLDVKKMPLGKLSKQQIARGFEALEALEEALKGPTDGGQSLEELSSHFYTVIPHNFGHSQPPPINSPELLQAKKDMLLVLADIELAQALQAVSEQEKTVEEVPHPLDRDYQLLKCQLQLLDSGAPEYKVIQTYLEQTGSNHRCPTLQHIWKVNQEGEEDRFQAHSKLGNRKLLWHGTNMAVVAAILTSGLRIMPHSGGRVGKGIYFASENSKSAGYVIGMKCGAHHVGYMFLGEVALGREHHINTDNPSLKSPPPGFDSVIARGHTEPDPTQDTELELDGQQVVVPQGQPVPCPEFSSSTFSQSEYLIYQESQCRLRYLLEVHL
Text: as §1

PARP11 = target: T3, PARP11 (Homo sapiens, UniProt Q9NR21)
T3 sequence (Q9NR21 1-338): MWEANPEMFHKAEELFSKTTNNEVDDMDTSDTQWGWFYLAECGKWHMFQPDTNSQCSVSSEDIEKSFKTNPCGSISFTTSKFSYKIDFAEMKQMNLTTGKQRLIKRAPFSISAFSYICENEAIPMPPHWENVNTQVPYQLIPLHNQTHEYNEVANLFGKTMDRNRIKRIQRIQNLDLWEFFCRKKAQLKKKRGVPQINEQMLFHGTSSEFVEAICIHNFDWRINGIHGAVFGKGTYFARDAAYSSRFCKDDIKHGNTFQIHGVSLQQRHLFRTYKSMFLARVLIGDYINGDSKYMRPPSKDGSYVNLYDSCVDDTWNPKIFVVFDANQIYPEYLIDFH
Text: as §1

PARP1 = PARP1 (Homo sapiens, UniProt P09874)
Text: as §1

PARP4brct-cat [2] = conditions: PARP4brct-cat over PARP10cat
Text: as §1

PARP2 = PARP2 (Homo sapiens, UniProt Q9UGN5)
Text: as §1

PARP14cat-wwe = PARP14cat-wwe over PARP10cat
Text: as §1

PARP15cat = target: T4, PARP15cat (Homo sapiens, UniProt Q460N3)
T4 construct: PARP15cat
T4 sequence (Q460N3 482-678 limits assumed): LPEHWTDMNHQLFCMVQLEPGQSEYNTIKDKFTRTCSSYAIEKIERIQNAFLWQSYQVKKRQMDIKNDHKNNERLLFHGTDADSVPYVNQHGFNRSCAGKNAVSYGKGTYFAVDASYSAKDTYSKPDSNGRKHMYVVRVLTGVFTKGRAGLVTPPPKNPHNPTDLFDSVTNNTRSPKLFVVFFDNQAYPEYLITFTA
Text: as §1

PARP10cat = target: T5, PARP10cat (Homo sapiens, UniProt Q53GL7)
T5 sequence (Q53GL7 806-1025 limits assumed): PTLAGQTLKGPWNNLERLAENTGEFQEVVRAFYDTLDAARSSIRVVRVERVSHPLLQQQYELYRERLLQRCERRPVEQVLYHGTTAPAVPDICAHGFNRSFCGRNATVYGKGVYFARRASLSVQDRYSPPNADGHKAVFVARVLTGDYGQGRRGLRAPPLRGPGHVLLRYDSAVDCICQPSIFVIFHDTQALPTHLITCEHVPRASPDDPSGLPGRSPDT
Text: as §1

PARP6S = PARP6S (Homo sapiens, UniProt Q2NL67)
PARP6S, sequence (Q2NL67 1-518 isoform Q2NL67-2): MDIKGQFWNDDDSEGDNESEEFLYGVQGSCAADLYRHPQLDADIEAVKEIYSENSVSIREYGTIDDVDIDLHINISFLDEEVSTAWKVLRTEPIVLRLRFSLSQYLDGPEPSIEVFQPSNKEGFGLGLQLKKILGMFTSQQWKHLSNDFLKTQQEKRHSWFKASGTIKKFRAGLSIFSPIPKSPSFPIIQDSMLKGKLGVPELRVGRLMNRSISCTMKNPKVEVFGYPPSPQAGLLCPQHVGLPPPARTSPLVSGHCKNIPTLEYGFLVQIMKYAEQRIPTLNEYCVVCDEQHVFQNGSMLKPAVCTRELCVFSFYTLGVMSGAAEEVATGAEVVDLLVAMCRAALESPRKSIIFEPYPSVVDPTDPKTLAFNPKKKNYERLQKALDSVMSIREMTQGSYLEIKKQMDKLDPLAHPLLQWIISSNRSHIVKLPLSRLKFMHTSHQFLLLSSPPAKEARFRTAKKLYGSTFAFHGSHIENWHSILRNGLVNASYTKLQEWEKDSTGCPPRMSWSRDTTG

PARP1, sequence (P09874 whole entry): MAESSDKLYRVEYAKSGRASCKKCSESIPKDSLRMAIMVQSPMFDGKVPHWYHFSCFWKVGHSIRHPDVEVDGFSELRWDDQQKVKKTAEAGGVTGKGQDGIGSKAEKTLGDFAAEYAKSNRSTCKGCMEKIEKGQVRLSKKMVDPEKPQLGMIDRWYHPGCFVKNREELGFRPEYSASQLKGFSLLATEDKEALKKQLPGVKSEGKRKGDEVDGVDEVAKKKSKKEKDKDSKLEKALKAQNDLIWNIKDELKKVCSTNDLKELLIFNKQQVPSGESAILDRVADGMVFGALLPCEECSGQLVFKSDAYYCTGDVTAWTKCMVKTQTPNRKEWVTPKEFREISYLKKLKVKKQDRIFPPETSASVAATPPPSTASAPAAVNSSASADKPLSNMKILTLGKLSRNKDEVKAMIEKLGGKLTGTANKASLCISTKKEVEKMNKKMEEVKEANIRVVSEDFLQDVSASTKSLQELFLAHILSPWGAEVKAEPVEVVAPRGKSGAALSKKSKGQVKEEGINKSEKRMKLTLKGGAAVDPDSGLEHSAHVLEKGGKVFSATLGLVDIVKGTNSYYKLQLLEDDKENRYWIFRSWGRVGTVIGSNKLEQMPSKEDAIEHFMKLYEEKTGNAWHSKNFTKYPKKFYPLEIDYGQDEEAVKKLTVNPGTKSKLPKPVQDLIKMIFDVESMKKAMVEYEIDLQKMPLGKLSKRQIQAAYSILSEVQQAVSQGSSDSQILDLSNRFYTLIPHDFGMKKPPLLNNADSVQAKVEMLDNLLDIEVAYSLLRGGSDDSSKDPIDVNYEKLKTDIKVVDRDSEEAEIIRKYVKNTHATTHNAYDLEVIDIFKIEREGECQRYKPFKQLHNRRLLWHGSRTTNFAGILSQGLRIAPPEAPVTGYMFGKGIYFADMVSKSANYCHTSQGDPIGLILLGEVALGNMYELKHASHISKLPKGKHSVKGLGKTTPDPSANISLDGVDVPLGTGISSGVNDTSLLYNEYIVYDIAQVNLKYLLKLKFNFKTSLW
PARP2, sequence (Q9UGN5 whole entry): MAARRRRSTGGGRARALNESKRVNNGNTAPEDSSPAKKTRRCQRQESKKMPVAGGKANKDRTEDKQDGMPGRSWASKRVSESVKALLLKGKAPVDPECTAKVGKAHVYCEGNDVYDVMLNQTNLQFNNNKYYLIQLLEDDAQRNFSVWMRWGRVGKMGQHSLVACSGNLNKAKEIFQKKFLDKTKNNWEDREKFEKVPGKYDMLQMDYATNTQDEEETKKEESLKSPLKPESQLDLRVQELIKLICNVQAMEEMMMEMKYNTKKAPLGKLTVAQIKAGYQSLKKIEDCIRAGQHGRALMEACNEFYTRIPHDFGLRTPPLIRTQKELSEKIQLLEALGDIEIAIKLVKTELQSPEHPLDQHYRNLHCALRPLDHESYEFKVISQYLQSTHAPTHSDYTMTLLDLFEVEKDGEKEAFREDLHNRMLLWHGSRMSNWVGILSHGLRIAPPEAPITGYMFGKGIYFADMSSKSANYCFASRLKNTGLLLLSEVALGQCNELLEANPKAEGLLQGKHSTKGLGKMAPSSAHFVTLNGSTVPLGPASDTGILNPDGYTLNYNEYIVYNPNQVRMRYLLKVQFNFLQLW
T1 sequence (Q9UKK3 whole entry): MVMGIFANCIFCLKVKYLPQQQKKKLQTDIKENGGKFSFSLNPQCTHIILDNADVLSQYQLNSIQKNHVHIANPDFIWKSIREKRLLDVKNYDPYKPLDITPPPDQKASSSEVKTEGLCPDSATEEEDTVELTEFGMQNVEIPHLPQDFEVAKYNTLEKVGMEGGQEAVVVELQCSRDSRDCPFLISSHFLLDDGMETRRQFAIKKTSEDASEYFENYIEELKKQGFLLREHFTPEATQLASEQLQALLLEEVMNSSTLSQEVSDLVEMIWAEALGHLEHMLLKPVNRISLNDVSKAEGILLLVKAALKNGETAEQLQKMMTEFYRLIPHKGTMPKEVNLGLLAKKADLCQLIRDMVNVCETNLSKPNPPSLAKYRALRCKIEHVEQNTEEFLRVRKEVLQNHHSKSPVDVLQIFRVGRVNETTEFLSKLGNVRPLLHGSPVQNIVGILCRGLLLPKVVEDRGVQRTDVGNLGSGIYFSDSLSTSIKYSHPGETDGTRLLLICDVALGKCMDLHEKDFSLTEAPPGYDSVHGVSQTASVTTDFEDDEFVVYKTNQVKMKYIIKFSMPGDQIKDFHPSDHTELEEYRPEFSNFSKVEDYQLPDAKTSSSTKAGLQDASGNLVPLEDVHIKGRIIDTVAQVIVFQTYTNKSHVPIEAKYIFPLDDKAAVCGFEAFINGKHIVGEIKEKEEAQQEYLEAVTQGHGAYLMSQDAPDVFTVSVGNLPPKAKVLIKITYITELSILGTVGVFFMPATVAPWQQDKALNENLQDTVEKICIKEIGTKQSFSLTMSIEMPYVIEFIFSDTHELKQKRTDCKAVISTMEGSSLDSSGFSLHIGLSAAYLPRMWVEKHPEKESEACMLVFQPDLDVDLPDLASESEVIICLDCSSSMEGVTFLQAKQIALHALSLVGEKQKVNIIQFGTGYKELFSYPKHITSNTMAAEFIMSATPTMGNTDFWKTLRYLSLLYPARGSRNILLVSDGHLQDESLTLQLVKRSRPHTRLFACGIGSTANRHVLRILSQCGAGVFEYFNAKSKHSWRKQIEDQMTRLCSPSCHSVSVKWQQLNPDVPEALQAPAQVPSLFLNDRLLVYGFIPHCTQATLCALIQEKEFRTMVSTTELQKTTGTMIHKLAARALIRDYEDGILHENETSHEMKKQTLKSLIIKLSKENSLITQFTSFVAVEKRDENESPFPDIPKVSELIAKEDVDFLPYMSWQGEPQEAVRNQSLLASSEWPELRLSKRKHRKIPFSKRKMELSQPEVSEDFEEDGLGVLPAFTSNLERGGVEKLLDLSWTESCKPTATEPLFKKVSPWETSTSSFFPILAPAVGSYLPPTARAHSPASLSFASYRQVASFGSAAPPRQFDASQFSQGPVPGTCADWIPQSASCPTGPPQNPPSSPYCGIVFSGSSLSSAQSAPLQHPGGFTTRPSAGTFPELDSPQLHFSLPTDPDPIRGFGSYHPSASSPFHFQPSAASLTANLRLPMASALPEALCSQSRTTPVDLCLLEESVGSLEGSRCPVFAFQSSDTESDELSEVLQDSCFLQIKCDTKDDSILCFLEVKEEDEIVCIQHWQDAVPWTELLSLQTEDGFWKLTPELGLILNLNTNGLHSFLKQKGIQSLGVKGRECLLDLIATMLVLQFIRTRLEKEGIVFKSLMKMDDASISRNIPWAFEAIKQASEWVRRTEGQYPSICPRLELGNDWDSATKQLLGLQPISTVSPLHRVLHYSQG

Cc1c(-c2ccnc(C(F)(F)F)c2)ccc2c1CCNC2=O [Compound 22, 5-methyl-6-(2-(trifluoromethyl)pyridin-4-yl)-3,4-dihydroisoquinolin-1(2H)-one]
inhibition of PARP4 (PARP4brct-cat [1]): does not inhibit | IC50 (PARP3; 6-a-NAD+): > 100 µM | PARP/PARP10 (PARP3; PARP3 over PARP10cat): >>37 | inhibition of PARP3 (PARP3; up to 100 μM): does not inhibit | IC50 (PARP11; 6-a-NAD+): 62.9 µM | PARP/PARP10 (PARP11; PARP11 over PARP10cat): 23 | IC50 (PARP1; 6-a-NAD+): > 100 µM | PARP/PARP10 (PARP1; PARP1 over PARP10cat): >>37 | inhibition of PARP1 (PARP1; up to 100 μM): does not inhibit | PARP/PARP10 (PARP4brct-cat [2]): >37 | IC50 (PARP2; 6-a-NAD+): > 100 µM | PARP/PARP10 (PARP2; PARP2 over PARP10cat): >37 | inhibition of PARP2 (PARP2; up to 100 μM): does not inhibit | PARP/PARP10 (PARP14cat-wwe): 22 | IC50 (PARP15cat; 6-a-NAD+): 62.9 µM | PARP15cat pIC50 ± S.E.M. (PARP15cat; 6-a-NAD+): 4.20 ± 0.05 | PARP/PARP10 (PARP15cat; PARP15cat over PARP10cat): 23 | selectivity for PARP10 over PARPs 1-4 and PARP 5b (PARP10cat; 6-a-NAD+): greater than 37 fold | IC50 (PARP10cat; 6-a-NAD+, read-out: PARP10cat IC50): 2.7 µM | IC50 (PARP10cat; 6-a-NAD+, read-out: PARP10cat pIC50 ± S.E.M. (converted)): 2.75 µM | PARP/PARP10 (PARP10cat; PARP10cat over PARP10cat): 1 | IC50 (PARP6S; 6-a-NAD+): > 30 µM | PARP/PARP10 (PARP6S; PARP6S over PARP10cat): >10
